# Reference: patent US9393187B2, “Peptide compounds that inhibit neuronal exocytosis” (LUBRIZOL ADVANCED MATERIALS, INC., priority 2012, dated 2016)
# Test system: human neuroblastoma cell line
# Assay: Release of noradrenaline induced by TPA/Ionomycin in a neuroblastoma cell line, quantified by ELISA
# Assay type: cell-based
# Conditions: TPA/ION control = 100
# Protocol: Quantification of the Release of Noradrenaline Induced by TPA/Ionomycin in a Neuroblastoma Cell Line by ELISA
# The induction of the release of noradrenaline with TPA (12-O-tetradecanoylphorbol-13-acetate)/lonomycin enables direct measurement of neuronal exocytosis. For the study of the inhibitory effect of the compounds of the invention on the release of noradrenaline, cells of a human neuroblastoma cell line were pre-incubated (1×10^6 cells/well) for 60 minutes with the compound of the invention (1 μM, 10 μM, 100 μM, 500 μM or 1 mM compounds), and afterwards the release of noradrenaline was induced. The release of the noradrenaline neurotransmitter was induced by an 8 minute pre-treatment with a solution of 12-O-tetradecanoylphorbol-13-acetate (TPA) 100 nM, which mobilized the intracellular vesicles which contained the neuro-transmitter; followed by a 5 minute incubation with TPA/Ionomycin (100 nM/10 μM), which induced the release of the neurotransmitter contained in these vesicles. […] For this, absorbance at 405 nm was measured in Thermo Scientific Multiskan Ascent equipment.
# The blocking of the SNARE complex by the compounds of the invention lead to an inhibition of neuronal exocytosis and therefore, a decrease in the levels of released noradrenaline (Table 6).
substance,measurement,setting,value
Ac-NDIAQM-NH2 [Ac-SEQ ID NO:30-NH2],% RELEASED NORADRENALINE Average,dose 1 μM,99.59%
same,% RELEASED NORADRENALINE Average,dose 10 μM,94.48%
same,% RELEASED NORADRENALINE Average,dose 100 μM,74.79%
same,% RELEASED NORADRENALINE Average,dose 500 μM,48.07%
same,% RELEASED NORADRENALINE Average,dose 1000 μM,41.05%
Ac-RDFDQW-NH2 [Ac-SEQ ID NO:31-NH2],% RELEASED NORADRENALINE Average,dose 10 μM,83.33%
same,% RELEASED NORADRENALINE Average,dose 100 μM,69.07%
same,% RELEASED NORADRENALINE Average,dose 1000 μM,31.72%
